Experiments:
[1] = test system: rabbit serum obtained by immunizing a rabbit with the SARS-CoV strain Frankfurt 1; format: binding; parameters: Binding of a rabbit serum to linear peptides / Binding of a rabbit serum to looped peptides / Rabbit serum linear peptides / Rabbit serum looped peptides / Binding of a rabbit serum to linear peptides of protein N of SARS-CoV Urbani (Rabbit serum linear peptides) / Binding of a rabbit serum to looped/cyclic peptides of protein N of SARS-CoV Urbani (Rabbit serum looped peptides): unit not given here
[2] = test system: recombinant human anti-SARS-CoV antibody 03-018; format: binding; parameters: Binding of antibody 03-018 to linear peptides of the N protein of SARS-CoV Urbani / Binding of antibody 03-018 to looped/cyclic peptides of the N protein of SARS-CoV Urbani: unit not given here
[3] = test system: control sera (pooled serum of ten healthy LUMC hospital workers; commercial negative donor pooled serum from the Dutch bloodbank); format: binding, human; parameters: Binding of Control serum LUMC to linear peptides / Binding of Control serum Blood-bank to linear peptides / Binding of Control serum LUMC to looped peptides / Binding of Control Serum Blood-Bank to Looped peptides / Binding of Control serum LUMC to linear peptides of the protein M of SARS-CoV Urbani / Binding of Control serum Blood-bank to linear peptides of the protein M of SARS-CoV Urbani / Binding of Control serum LUMC to looped peptides of the protein M of SARS-CoV Urbani / Binding of Control Serum Blood-Bank to Looped peptides of the protein M of SARS-CoV Urbani: unit not given here
[4] = test system: antibodies in sera from SARS patients (sera 1a, 1b, 2, 6, 37, 62, London, SARS-yellow, SARS-green); format: binding, human; parameters: Binding of serum 6 to linear peptides of protein X1 of SARS-CoV Urbani / Binding of serum 37 to linear peptides of protein X1 of SARS-CoV Urbani / Binding of serum 6 to looped/cyclic peptide (PEPSCAN-ELISA) / Binding of serum 37 to looped/cyclic peptide (PEPSCAN-ELISA) / Binding of serum 37 to looped/cyclic peptides of protein X1 of SARS-CoV Urbani / Binding of serum 6 to linear peptides of protein X2 / Binding of serum 37 to linear peptides of protein X2 / Binding of serum 37 to looped/cyclic peptides of protein X2 of SARS-CoV Urbani / Binding of serum 6 to linear peptides of protein M of SARS-CoV Urbani / Binding of serum 37 to linear peptides of protein M of SARS-CoV Urbani / Binding of serum 6 to looped/cyclic peptides of protein M of SARS-CoV Urbani / Binding of serum 37 to looped/cyclic peptides of protein M of SARS-CoV Urbani / Binding of serum 6 to linear peptides of protein X3 of SARS-CoV Urbani / Binding of serum 37 to linear peptides of protein X3 of SARS-CoV Urbani / Binding of serum 37 to looped/cyclic peptides of protein X3 of SARS-CoV Urbani / Binding of serum 6 to linear peptides of protein X4 of SARS-CoV Urbani / Binding of serum 37 to linear peptides of protein X4 of SARS-CoV Urbani / Binding of serum 37 to looped/cyclic peptides of protein X4 of SARS-CoV Urbani / Binding of serum 6 to linear peptides of protein X5 of SARS-CoV Urbani / Binding of serum 37 to linear peptides of protein X5 of SARS-CoV Urbani / Binding of serum 37 to looped/cyclic peptides of protein X5 of SARS-CoV Urbani / Binding of serum 6 to linear peptides of protein N of SARS-CoV Urbani / Binding of serum 37 to linear peptides of protein N of SARS-CoV Urbani / Binding of serum 6 to linear peptide (PEPSCAN-ELISA) / Binding of serum 1a to looped/cyclic peptides of protein N of SARS-CoV Urbani / Binding of serum 1b to looped/cyclic peptides of protein N of SARS-CoV Urbani / Binding of serum 2 to looped/cyclic peptides of protein N of SARS-CoV Urbani / Binding of serum 6 to looped/cyclic peptides of protein N of SARS-CoV Urbani / Binding of serum 37 to looped/cyclic peptides of protein N of SARS-CoV Urbani / Binding of serum 62 to looped/cyclic peptides of protein N of SARS-CoV Urbani / Binding of serum London to looped/cyclic peptides of protein N of SARS-CoV Urbani / Binding of serum SARS-green to looped/cyclic peptides of protein N of SARS-CoV Urbani: unit not given here

Sequence | Binding of a rabbit serum to linear peptides of protein N of SARS-CoV Urbani (Rabbit serum linear peptides) [1] | Binding of a rabbit serum to looped/cyclic peptides of protein N of SARS-CoV Urbani (Rabbit serum looped peptides) [1] | Binding of antibody 03-018 to linear peptides of the N protein of SARS-CoV Urbani [2] | Binding of antibody 03-018 to looped/cyclic peptides of the N protein of SARS-CoV Urbani [2] | Binding of serum 1a to linear peptides of protein N of SARS-CoV Urbani [4] | Binding of serum 1a to looped/cyclic peptides of protein N of SARS-CoV Urbani [4] | Binding of serum 1b to linear peptides of protein N of SARS-CoV Urbani [4] | Binding of serum 1b to looped/cyclic peptides of protein N of SARS-CoV Urbani [4] | Binding of serum 2 to linear peptides of protein N of SARS-CoV Urbani [4] | Binding of serum 2 to looped/cyclic peptides of protein N of SARS-CoV Urbani [4] | Binding of serum 6 to linear peptides of protein N of SARS-CoV Urbani [4] | Binding of serum 6 to looped/cyclic peptides of protein N of SARS-CoV Urbani [4] | Binding of serum 37 to linear peptides of protein N of SARS-CoV Urbani [4] | Binding of serum 37 to looped/cyclic peptides of protein N of SARS-CoV Urbani [4] | Binding of serum 62 to linear peptides of protein N of SARS-CoV Urbani [4] | Binding of serum 62 to looped/cyclic peptides of protein N of SARS-CoV Urbani [4] | Binding of serum London to linear peptides of protein N of SARS-CoV Urbani [4] | Binding of serum London to looped/cyclic peptides of protein N of SARS-CoV Urbani [4] | Binding of serum SARS-green to looped/cyclic peptides of protein N of SARS-CoV Urbani [4] | Binding of serum SARS-yellow to looped/cyclic peptides of protein N of SARS-CoV Urbani [4] | also measured
VTPSGTWLTYHGAIK | 0.1 | 0.1 | 0.1 | 0.2 | 0.3 | 0.2 | 0.1 | 0.1 | 0.2 | 0.2 | 0.2 | 0.1 | 0.7 | 0.4 | 0.8 | 0.3 | 0.7 | 0.3 | 0.0 | 0.2 | Control Serum Blood-Bank Looped peptides [3]: 0.3; Control serum Blood-bank linear peptides [3]: 0.8; Control serum LUMC linear peptides [3]: 0.6; Control serum LUMC looped peptides [3]: 0.3; Binding of serum SARS-green to linear peptides of protein N of SARS-CoV Urbani [4]: 0.5; Binding of serum SARS-yellow to linear peptides of protein N of SARS-CoV Urbani [4]: 0.5
VTQAFGRRGPEQTQG |  |  | 0.1 | 0.2 |  | 0.3 |  | 0.2 |  | 0.2 |  | 0.1 |  | 0.4 |  | 0.3 |  | 0.3 | 0.2 | 0.3 | Recognition of the peptide by the rabbit serum [1]: recognized; Binding of Control Serum Blood-Bank to Looped peptides [3]: 0.6; Binding of Control serum Blood-bank to linear peptides [3]: 0.8; Binding of Control serum LUMC to linear peptides [3]: 0.7; Binding of Control serum LUMC to looped peptides [3]: 0.5; Binding of serum 1a to linear peptide (PEPSCAN-ELISA) [4]: 0.3; Binding of serum 1b to linear peptide (PEPSCAN-ELISA) [4]: 0.1; Binding of serum 2 to linear peptide (PEPSCAN-ELISA) [4]: 0.1; Binding of serum 6 to linear peptide (PEPSCAN-ELISA) [4]: 0.2; Binding of serum 37 to linear peptide (PEPSCAN-ELISA) [4]: 0.6; Binding of serum 62 to linear peptide (PEPSCAN-ELISA) [4]: 0.5; Binding of serum London to linear peptide (PEPSCAN-ELISA) [4]: 0.5; Binding of serum SARS-green to linear peptide (PEPSCAN-ELISA) [4]: 0.5; Binding of serum SARS-yellow to linear peptide (PEPSCAN-ELISA) [4]: 0.7
VWVATEGALNTPKDH | 0.1 | 0.4 | 0.1 | 0.3 | 0.2 | 0.3 | 0.1 | 0.3 | 0.2 | 0.6 | 0.2 | 0.4 | 0.8 | 0.6 | 0.7 | 0.6 | 0.6 | 1.2 | 0.7 | 0.6 | Binding of Control Serum Blood-Bank to Looped peptides [3]: 0.8; Binding of Control serum Blood-bank to linear peptides [3]: 0.6; Binding of Control serum LUMC to linear peptides [3]: 0.8; Binding of Control serum LUMC to looped peptides [3]: 0.6; Binding of serum SARS-green to linear peptides of protein N of SARS-CoV Urbani [4]: 0.5; Binding of serum SARS-yellow to linear peptides of protein N of SARS-CoV Urbani [4]: 0.6
WFTALTQHGKEELRF | 0.1 | 0.3 | 0.1 | 0.2 | 0.3 | 0.4 | 0.2 | 0.2 | 0.3 | 0.4 | 0.2 | 0.2 | 1.2 | 0.8 | 0.9 | 0.6 | 0.7 | 0.4 | 0.5 | 0.4 | Binding of Control Serum Blood-Bank to Looped peptides [3]: 0.6; Binding of Control serum Blood-bank to linear peptides [3]: 0.8; Binding of Control serum LUMC to linear peptides [3]: 0.7; Binding of Control serum LUMC to looped peptides [3]: 0.5; Binding of serum SARS-green to linear peptides of protein N of SARS-CoV Urbani [4]: 0.4; Binding of serum SARS-yellow to linear peptides of protein N of SARS-CoV Urbani [4]: 0.5
